{"source": "ChEMBL document CHEMBL1146407", "about": "“Taxuspinananes A and B, new taxoids from Taxus cuspidata var. nana” (J Nat Prod, 1997)"}
{"system": "P388", "assay": "Cytotoxicity against mouse P388 cells after 48 hrs by MTT assay", "type": "functional, cell-based", "conditions": "P388, 48 h", "units": {"IC50": "µg/mL"}}
{"molecule": "C=C1[C@@H](O)C[C@H](OC(C)=O)[C@@]2(C)[C@@H](OC(C)=O)[C@H](OC(=O)c3ccccc3)C3=C(C)C(=O)C[C@@]3(C(C)(C)O)[C@@H](OC(C)=O)[C@H]12", "note": "[13-OXO-TAXCHININ A]", "IC50": 10}
{"molecule": "CC(=O)O[C@H]1C(=O)[C@@]2(C)[C@H]([C@H](OC(=O)c3ccccc3)[C@]3(O)C[C@H](OC(=O)[C@H](O)[C@@H](NC(=O)c4ccccc4)c4ccccc4)C(C)=C1C3(C)C)[C@]1(OC(C)=O)CO[C@@H]1C[C@@H]2O", "note": "[PACLITAXEL]", "IC50": 0.03}
{"molecule": "CCC(C)CCC(=O)N[C@@H](c1ccccc1)[C@@H](O)C(=O)O[C@H]1C[C@@]2(O)[C@@H](OC(=O)c3ccccc3)[C@@H]3[C@]4(OC(C)=O)CO[C@@H]4C[C@H](O)[C@@]3(C)C(=O)[C@H](OC(C)=O)C(=C1C)C2(C)C", "note": "(stereo partly drawn) [TAXUSPINANANE A]", "IC50": 0.01}
